Tests used:
[1] = system: Erysiphe graminis f.sp. Tritici; experiment: Action against Erysiphe graminis f.sp. tritici (wheat powdery mildew), wheat leaf segments, preventive; format: in vivo; conditions: Blumeria graminis, foliar, 168 h; wheat leaf segments sprayed with 0.02% active ingredient; assessed 7 days after inoculation; read-out: preventive fungicidal activity (inhibition)
Protocol: (§1) Action Against Erysiphe graminis f.sp. Tritici (Wheat Powdery Mildew) Wheat leaf segments are placed on agar in multiwell plates (24-well format) and sprayed with test solutions (0.02% active ingredient). After drying, the leaf disks are inoculated with a spore suspension of the fungus. After appropriate incubation the activity of a compound is assessed 7 days after inoculation as preventive fungicidal activity. Compounds 1.001, 1.004, 1.052, 1.069, 1.134, and 1.182 show good activity in this test (at least 50% inhibition).

Botrytis cinerea = experiment: Action against Botrytis cinerea - fungal growth assay; format: cell-based; conditions: 0.02% active ingredient, PDB nutrient broth, 24° C., measured photometrically after 3-4 days
Protocol: (§2) Action Against Botrytis cinerea—Fungal Growth Assay Conidia of the fungus from cryogenic storage are directly mixed into nutrient broth (PDB potato dextrose broth). After placing a (DMSO) solution of the test compounds (0.02% active ingredient) into a microtiter plate (96-well format) the nutrient broth containing the fungal spores is added. The test plates are incubated at 24° C. and the inhibition of growth is measured photometrically after 3-4 days. The activity of a compound is expressed as fungal growth inhibition. Compounds 1.001, 1.004, 1.052, 1.134, 1.182 and 1.197 show good activity in this test (at least 50% inhibition).

Mycosphaerella arachidis = experiment: Action against Mycosphaerella arachidis (early leaf spot of groundnut) - fungal growth assay; format: cell-based; conditions: 0.02% active ingredient, PDB nutrient broth, 24° C., measured photometrically after 6-7 days
Protocol: as §2, with “Mycosphaerella arachidis (Early Leaf Spot of Groundnut Cercospora Arachidicola [Anamorph])—Fungal” for “Botrytis cinerea—Fungal”, “6-7” for “3-4”, “1.052, 1.069,” for “1.052,”, “1.134, 1.171,” for “1.134,”

Pyrenophora teres = experiment: Action against Pyrenophora teres (net blotch) on barley leaf segments, preventive; format: in vivo; conditions: foliar, 96 h, barley leaf segments sprayed with 0.02% active ingredient, assessed 4 days after inoculation, read-out: preventive fungicidal activity (inhibition)
Protocol: as §1, with “Pyrenophora teres (Net Blotch) on Barley Barley” for “Erysiphe graminis f.sp. Tritici (Wheat Powdery Mildew) Wheat”, “4” for “7”, “1.134, 1.171, 1.182” for “1.134,”, “1.197” for “1.182”

Puccinia recondita = experiment: Curative action against Puccinia recondita (brown rust) on wheat leaf segments; format: in vivo; conditions: foliar, wheat leaf segments sprayed with 0.02% active ingredient one day after inoculation, assessed 8 days after inoculation, read-out: curative fungicidal activity (inhibition)
Protocol: Curative Action Against Puccinia recondita (Brown Rust) on Wheat Wheat leaf segments are placed on agar in multiwell plates (24-well format) and inoculated with a spore suspension of the fungus. One day after inoculation the leaf segments are sprayed with test solutions (0.02% active ingredient). After appropriate incubation the activity of a compound is assessed 8 days after inoculation as curative fungicidal activity. Compounds 1.004 and 1.052 show good activity in this test (at least 50% inhibition).

Septoria tritici = experiment: Action against Septoria tritici - fungal growth assay; format: cell-based; conditions: Zymoseptoria tritici; 0.02% active ingredient; PDB nutrient broth, 24° C.; determined photometrically after 72 hrs
Protocol: as §2, with “Septoria tritici—Fungal” for “Botrytis cinerea—Fungal”, “determined” for “measured”, “72 hrs.” for “3-4 days.”, “1.052, 1.069,” for “1.052,”, “1.134, 1.171,” for “1.134,”

Monographella nivalis = experiment: Action against Monographella nivalis (snow mould) - fungal growth assay; format: cell-based; conditions: 0.02% active ingredient, PDB nutrient broth, 24° C., measured photometrically after 72 hrs
Protocol: as §2, with “Monographella nivalis (Anamorph: Fusarium nivale, Microdochium nivale; Snow Mould)—Fungal” for “Botrytis cinerea—Fungal”, “DMSO-solution” for “(DMSO) solution”, “72 hrs.” for “3-4 days. The activity of a compound is expressed as fungal growth inhibition.”, “1.052, 1.069,” for “1.052,”, “1.134, 1.171,” for “1.134,”

Leptosphaeria nodorum = experiment: Action against Leptosphaeria nodorum (Septoria nodorum; glume blotch) on wheat leaf segments, preventive; format: in vivo; conditions: Parastagonospora nodorum, foliar, 96 h; wheat leaf segments sprayed with 0.02% active ingredient; assessed 4 days after inoculation; read-out: preventive fungicidal activity (inhibition)
Protocol: as §1, with “Leptosphaeria nodorum (Septoria nodorum; Glume Blotch) on Wheat” for “Erysiphe graminis f.sp. Tritici (Wheat Powdery Mildew)”, “4” for “7”, “1.004,” for “1.004, 1.052,”

Measured: inhibition at 0.02 % strength

CC(CCc1c(Cl)cc(Cl)cc1Cl)NC(=O)c1cn(C)nc1C(F)F (stereo not shown) [Compound 1.004, 3-difluoromethyl-1-methyl-1H-pyrazole-4-carboxylic acid [1-methyl-3-(2,4,6-trichloro-phenyl)-propyl]-amide]
≥ 50%: all assays above

CC(CCCc1c(Cl)cc(Cl)cc1Cl)NC(=O)c1cn(C)nc1C(F)F (stereo not shown) [Compound 1.069, 3-difluoromethyl-1-methyl-1H-pyrazole-4-carboxylic acid [1-methyl-4-(2,4,6-trichloro-phenyl)-butyl]-amide]
not listed: Botrytis cinerea | Puccinia recondita
≥ 50%: all other assays above

CC(COCc1c(Cl)cccc1Cl)NC(=O)c1cn(C)nc1C(F)F (stereo not shown) [Compound 1.197, 3-difluoromethyl-1-methyl-1H-pyrazole-4-carboxylic acid [2-(2,6-dichloro-benzyloxy)-1-methyl-ethyl]-amide]
≥ 50%: Botrytis cinerea | Mycosphaerella arachidis | Pyrenophora teres | Septoria tritici | Monographella nivalis
